Experimental data: patent US20220322656A1, “PRESERVATION OF ORGANS FOR TRANSPLANT AND NON-TRANSPLANT SURGERIES” (The Regents of the University of Michigan, priority 2019, published 2022)
“Also recorded” adds a separate entry of the source.

Columns and labels:
[1] = tested on: pig hearts; test: Ex-vivo isolated pig heart perfusion after 6 hours of ice storage in HTK with or without VPA; conditions: 6 grams VPA in 2 liters HTK, 6 hours on ice
Method: FIG. 1. Coronary vascular resistance after two hours of ex-vivo pig heart perfusion. […] 6 grams of VPA was dissolved in 2 liters of heart preservation solution (histidine-tryptophan-ketoglutarate solution, HTK) and then infused this through the aortic root of freshly sacrificed pig hearts (n=3). For the control group (n=3) only HTK solution was infused. HTK solution is one of the standard donor heart preservation solutions used clinically for heart transplantation. The pig heart was then stored in ice after mechanical arrest with HTK solution as per standard transplant protocol for a total of 6 hours. After 6 hours, the hearts were retrieved and perfused with pig blood in an ex-vivo isolated heart perfusion model. The hearts were then examined for cardiac performance.

[2] = tested on: donor hearts from C57BL/6J mice; test: Reanimation of murine donor hearts on ex-vivo Langendorff apparatus after cold storage; conditions: up to 5 hours of cold storage, vs HTK solution
Method: From murine heart experiments, donor hearts from C57BL/6J mice were preserved with either HTK solution or VPA+HTK solution and then stored in ice as per clinical protocols. The cold storage time was varied from 0 hour to 9 hours before reperfusing on an ex-vivo Langendorff apparatus.

[3] = tested on: human donor hearts; test: RNA-Seq gene set enrichment analysis of human donor hearts during cold (4° C.) storage
Method: For treatment of human donor hearts, 6 grams of VPA was dissolved in 2 liters of HTK preservation solution and also used 2 liters of HTK solution as control. The solutions were then infused this through the aortic root of human donor hearts (n=3). RNA-Seq was performed to study the transcriptomic effect of VPA on the human heart during cold (4° C.) storage. Total RNA was isolated from the heart tissue stored at 0 h, 4 h and 8 h time points. Gene set enrichment analysis was then performed at different time points with or without VPA treatment.

[4] = tested on: murine donor hearts; test: Hemodynamics (max dp/dt, min dp/dt) of murine donor hearts after cold storage and ex-vivo reperfusion
Method: FIG. 5A-C. […] The max dp/dt (A) and min dp/dt (B) were calculated by averaging the max/min dp/dt in 20 minutes stable period after different cold storage periods followed by perfusion. The max dp/dt or −min dp/dt of hearts were normalized to percentage of time 0. **p<0.01. (C) VPA suppress the Ill and Myd88 protein level induced by cold storage.
FIG. 9A-C. […] Following spironolactone treatment, much improved (A) max dp/dt and (B) min dp/dt after prolonged storage after 8 hours and 12 hours was observed compared to HTK alone. N=4. **p<0.01, ***p<0.001 (C) Spironolactone suppress the Il1 and Myd88 protein level induced by cold storage.
(§1) Experiments were conducted during development of embodiments herein to examine the effect of VPA on donor heart function with prolonged cold storage of donor heart. To address this, murine donor hearts were perfused with 7-8 mL HTK solution alone or HTK with 20 mM VPA and then stored the heart for 0, 4, and 8 hours.
Murine donor hearts were isolated and preserved in HTK solution for 0 h, 4 h and 8 h. The cardiac hemodynamics were then examined in an ex-vivo perfusion system. […] This was accompanied by increasing apoptotic cell death by TUNEL staining (FIG. 6C). Occurrence of cell death processes such as apoptosis with increasing storage duration is corroborated by Increased expression of cleaved poly (ADP-ribose) polymerase (PARP), a marker of cell death (FIG. 6D).
(§2) Experiments were conducted during development of embodiments herein to determine whether pharmacological inhibition of MR signaling improves the heart function after prolonged cold storage period. To address this, murine donor hearts were perfused with 7-8 mL HTK solution alone or HTK with 25 μM spironolactone and then stored the heart for 0, 8 and 12 hours.

[5] = tested on: Il1; test: Il1 protein level in donor heart after cold storage (western blot); design: species or system murine
Method: as §1, §2

[6] = tested on: Myd88; test: Myd88 protein level in donor heart after cold storage (western blot); design: species or system murine
Method: as §1, §2

[7] = tested on: murine donor hearts; test: Hemodynamics (max dp/dt, min dp/dt) of murine donor hearts after cold storage and ex-vivo reperfusion; remark: listed apart in the source
[8] = HTK with 20 mM VPA vs HTK alone, after 4 h and 8 h of cold storage
[9] = canrenone vs HTK alone, after 8 hours of preservation
[10] = canrenone vs HTK alone, prolonged storage after 4 hours and 8 hours
[11] = HTK with 25 μM spironolactone vs HTK alone, after 8 h and 12 h of cold storage
[12] = HTK with 25 μM spironolactone vs HTK alone, after 8 h and 12 h of cold storage, listed as spironolactone
[13] = spironolactone, western blot, listed as spironolactone
[14] = Alda-1 vs HTK alone, after 8 h of cold storage

Compound: CCCC(CCC)C(=O)O [VPA, Valproic acid]
- fibrillatory arrest during ex-vivo perfusion ([1]; pig hearts (n=3), control 2 out of 3): None
- Coronary vascular resistance / coronary vascular tone ([1]; pig hearts, after two hours of ex-vivo perfusion, vs HTK control): improved; also recorded: trend toward better maintenance
- cardiac reanimation [2]: successful and comparable for both groups
- NES, Inflammatory response ([3]; LV, VPA vs HTK Only): −1.47
- NES, Interferon gamma response ([3]; LV, VPA vs HTK Only): −1.65
- NES, TNFa signaling via NFkB ([3]; LV, VPA vs HTK Only): −1.68
- accumulation of genes related to inflammatory response ([3]; LV, during cold storage): significantly reduced
- NES, Inflammatory response ([3]; RV, VPA vs HTK Only): −1.32
- NES, P53 pathway ([3]; RV, VPA vs HTK Only): −1.25
- NES, TNFa signaling via NFkB ([3]; RV, VPA vs HTK Only): −1.96
- activation of p53 proapoptotic pathway ([3]; RV, during cold storage): reduced the activation
- expression of inflammatory response genes ([3]; RV, during cold storage): reduced expression
- max dp/dt (donor heart contractility) [4, 8]: improves donor heart function; also recorded: dramatically improved
- min dp/dt (donor heart relaxation) [4, 8]: improves donor heart function; also recorded: dramatically improved
- Il1 protein level ([5]; HTK with 20 mM VPA): suppress; also recorded: reduced protein level
- Myd88 protein level ([6]; HTK with 20 mM VPA): suppress; also recorded: reduced protein level

Compound: C[C@]12CCC(=O)C=C1C=C[C@@H]1[C@@H]2CC[C@@]2(C)[C@H]1CC[C@@]21CCC(=O)O1 [Canrenone, canrenone]
- max dp/dt (donor heart contraction) [7, 9]: significantly improves
- min dp/dt (donor heart relaxation) [7, 9]: significantly improves
- max dp/dt [7, 10]: much improved
- min dp/dt [7, 10]: much improved

Compound: CC(=O)S[C@@H]1CC2=CC(=O)CC[C@]2(C)[C@H]2CC[C@@]3(C)[C@@H](CC[C@@]34CCC(=O)O4)[C@H]12 [Spironolactone, spironolactone]
- max dp/dt (donor heart contractility) [4, 11]: much improved
- min dp/dt (donor heart relaxation) [4, 11]: much improved
- max dp/dt (donor heart contractility) [4, 12]: dramatically improved
- min dp/dt (donor heart relaxation) [4, 12]: dramatically improved
- Il1 protein level ([5]; spironolactone, western blot): suppress
- Il1 protein level [5, 13]: significantly reduced
- Myd88 protein level ([6]; spironolactone, western blot): suppress
- Myd88 protein level [6, 13]: significantly reduced

Compound: O=C(NCc1ccc2c(c1)OCO2)c1c(Cl)cccc1Cl [Alda-1, N-(1,3-benzodioxo1-5-ylmethyl)-2,6-dichlorobenzamide]
- max dp/dt (donor heart contractility) [7, 14]: dramatically improves; also recorded: improved
- min dp/dt (donor heart relaxation) [7, 14]: dramatically improves; also recorded: improved
